From patent publication US20230000842A1, “METHODS OF TREATING CARTILAGE DISORDERS THROUGH INHIBITION OF CLK AND DYRK” (SAMUMED, LLC, priority 2019, published 2023)

Experiments:
[1] = tested on: primary human mesenchymal stem cells (hMSCs); assay: Chondrogenesis screening using primary human mesenchymal stem cells; type: cell-based; conditions: Homo sapiens, Mesenchymal stem cells
Procedure, shortened: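 Primary hMSCs at passage 3–6 were treated across compound concentrations, with TGF-β3 as positive control. Chondrogenic nodule area per well was normalized to 3 DMSO wells on the same plate (fold over DMSO, 2–3 replicates). EC50, maximum activity and the dose reaching it were derived.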

[2] = tested on: CLK mediated phosphorylation of SRSF4, 5, 6; assay: Western blot of phospho-SRSF in hMSCs and human chondrocytes; type: cell-based; conditions: 1 hr, vs DMSO
Method: (§1) Cells were plated at 300,000 cells per well in a 6-well plate and following an overnight incubation, treated with DMSO (vehicle control) or indicated compounds and incubated at 37° C. and 5% CO2 for the indicated times. Following treatment, cells were trypsinized and pelleted by centrifugation and washed with PBS. Total protein from the cell pellet was extracted or for fractionation, protein was fractionated into cytoplasmic and nuclear fractions using a Nuclear and Cytoplasmic Extraction Reagents (NE-PER™) kit containing Halt™ protease and phosphatase inhibitors (Thermo Fisher). Protein concentrations were quantified using the Pierce Micro BCA protein assay kit (Thermo Fisher). […] Blots were blocked with non-fat dry milk. Primary antibodies were incubated overnight at 4° C. β-actin and Lamin B1 were used as loading controls (Supplementary Table S2 for primary antibodies). Mouse and rabbit horseradish peroxidase (HRP)-conjugated secondary antibodies were diluted in 5% blocking buffer in TBS-T. Protein-antibody complexes were detected by chemiluminescence using the SuperSignal West Femto Chemiluminescent Substrate (Thermo Fisher) and images were captured with a UVP ChemiDocIt2 camera system (Fisher Scientific, Hampton, N.H.).

FOXO1 = assay: Western blot and immunofluorescence of FOXO1 with IL1-β; type: cell-based, human; conditions: hMSCs and chondrocytes; in the presence of IL-1β; compared to DMSO
Method: Cells were stained with anti-FOXO1 antibody (red) and DAPI nuclear stain (blue).
as §1

SIRT1 (pSer27, pSer47) = assay: Western blot of phospho-SIRT1 with IL1-β; type: cell-based, human; conditions: hMSCs and chondrocytes; in the presence of IL-1β; compared to DMSO
Method: as §1

[3] = tested on: Wnt pathway gene expression in hMSCs; assay: Nanostring nCounter Wnt Pathways panel in hMSCs; type: cell-based, human; conditions: >2-fold change, p<0.05, FDR corrected
Method: FIGS. 2D and 2E depict gene expression changes of selected genes from FIG. 2C by qRT-PCR (n=3, Mean±95% CI, *p<0.05, **p<0.01, ***p<0.001, one-way ANOVA). […] Downregulation of AXIN2, TCF7, LRP5, BAMBI, NKD1, PAI-1, LRP6, FZD6, FZD7, PITX2, ERBB2, and CTGF gene expression and increased levels of Wnt pathway inhibitors SFRP2 and DACT1 were determined by qPCR.
Fifty nanograms of RNA was hybridized with Tagsets and probe pools from the nCounter® Vantage 3D™ Wnt Pathways Panel (NanoString Technologies) for 16 hrs at 67° C. Hybridized samples were ran on a nCounter® SPRINT Profiler (NanoString Technologies). Nanostring gene counts were normalized by the geometric mean of all housekeeping genes by nSolver (v3.0). P-values from normalized counts were calculated by an independent t-test and adjusted by the false discovery rate (FDR) method (Benjamini & Hochberg) to correct for multiple comparisons using R (v3.4.2). Data was plotted using R (v3.4.2).

[4] = tested on: cartilage of ACLT+pMMx rats; assay: Surgery-induced OA model (ACLT+pMMx), cartilage analysis; type: in vivo, rat; conditions: cartilage at day 35
Method: Male Sprague Dawley (SD) rats (250 g±30 g) (Charles River, Wilmington, Mass.) were used for all animal studies. All animals were treatment naïve at the start of the studies. Procedures were performed during the hours of 8 am-5 pm on weekdays in a sterile hood in the vivarium. Rats were housed in individual ventilated cages (≤3 per cage) under the following conditions:
For Nanostring analysis and qPCR: At 10 weeks postnatal age, 32 rats were subjected to severing of the anterior cruciate, medial collateral and medial meniscotibial ligaments (ACLT+pMMx). 8 rats (male, 10 weeks old) were untreated controls (Sham). Each rat was anesthetized with an isoflurane/O2 mixture until the flexor withdrawal reflex was abolished. The surgeon wore a face mask, hair net, lab coat and shoe covers, and gloves that were disinfected with betadine or chlorhexidine. Surgery tools were sterilized with an autoclave or bead sterilizer and disinfected between animals using a bead sterilizer. After being shaved and disinfected with betadine or chlorhexidine solution, the right knee joint was exposed through a medial para-patellar approach. The medical collateral ligament (MCL) was transected with surgical scalpels. The patella was dislocated laterally, and the knee was placed in full flexion followed by anterior cruciate ligament (ACL) transection with surgical scalpels. The medial meniscus (MM) was also partially transected. After surgery, the joint surface was washed with sterile saline solution, and the capsule was sutured using Vicryl 4-0 (Ethicon, Edinburgh, UK) absorbable suture. The skin was closed with 9 mm auto clips (Mikron precision INC, Gardena Calif.). Buprenorphine (0.5 mg/kg) was administered immediately after the surgery and daily for one-week post-surgery. All the surgery, rats were allowed to move freely in plastic cages until their necropsies. […] At the indicated timepoints, animals were sacrificed using Carbon dioxide (CO2). Cartilage was isolated, flash frozen in liquid Nitrogen and stored at −80° C. until processing for RNA extraction.
At the indicated timepoints, animals were sacrificed using Carbon dioxide (CO2). Cartilage was isolated, flash frozen in liquid Nitrogen and stored at −80° C. until processing for protein extraction.

THP1 cells = assay: Western blot of phospho- and total proteins in THP1 cells stimulated with LPS; type: cell-based
Method: as §1

[5] = tested on: Wnt pathway activity (SW480 colon carcinoma cells stably expressing the Sp5-Luc reporter); assay: Wnt pathway activity screening assay (Sp5-Luc reporter gene assay); conditions: Homo sapiens, SW480
[6] = single IA injection 0.1 μg, 0.3 μg, 1 μg one-week post ACLT+pMMx, compared with vehicle

CC(C)CC(=O)Nc1cncc(-c2ccc3[nH]nc(-c4nc5c(-c6cccc(F)c6)cncc5[nH]4)c3c2)c1 [compound 123]
Emax ([1]; hMSC chondrogenesis, maximum activity relative to TGF-β3 (10 ng/mL) positive control, read-out: Max. Activity as % TGF-β3 activity): 397%
EC50 ([1]; read-out: Conc (nM) of 50% TGF-β3 activity): 30 nM
CLK mediated phosphorylation of SRSF4, 5, 6 [2]: dose-dependently inhibited
phosphorylation of FOXO1 (FOXO1): dose-dependently inhibited
total FOXO1 protein levels and nuclear localization (FOXO1): increases
phosphorylation of SIRT1 (pSer27, pSer47) (SIRT1 (pSer27, pSer47)): dose-dependently and more potently inhibited
number of Wnt pathway genes downregulated [3]: 19 genes
number of Wnt pathway genes upregulated [3]: 9 genes
number of Wnt pathway genes with decreased expression ([4]; ACLT+pMMx rats, Nanostring): 19 genes
number of Wnt pathway genes with increased expression ([4]; ACLT+pMMx rats, Nanostring): at least 8 genes
CLK2, DYRK1A, SRSF1, SRSF5, and SRSF6 expression [4, 6]: decreased
phospho-SRSF, SRSF1, AXIN2, TCF7, phospho-SIRT1, phospho-FOXO1, and phospho-STAT3 (Western blot) [4, 6]: decreased
AKT, JNK1, cJUN, p38/MAPK and TLR4 (THP1 cells; 4 hrs, compared to DMSO): not inhibited
phospho-STAT3 (S727, Y705), phospho- and total NF-κB (p105/p50), and phospho-FOXO1/3a (THP1 cells; 4 hrs, compared to DMSO): dose-dependently decreased
AKT, cJUN, p38/MAPK, and TLR4 (THP1 cells; 20 hrs): remained unchanged
NF-κB, STAT3, JNK1 and FOXO1/3a phosphorylation (THP1 cells; 20 hrs): robustly inhibited
phospho- or total NF-κB (p105/p50) (THP1 cells; THP1 cells + LPS, 10 mins, 30 mins, 1 hr or 2 hrs): no effects
phospho-STAT3 (Y705) (THP1 cells; THP1 cells + LPS, 1 hr, 2 hrs, 4 hrs and 20 hrs): inhibited
phospho- and total NF-κB (THP1 cells; THP1 cells + LPS, 4 hrs and 20 hrs): decreased
total STAT3 (THP1 cells; THP1 cells + LPS, any timepoint): no effects
EC50 [5]: 3.4 nM
